Reference: PubChem BioAssay AID1963978 (Molecular Pharmacology Branch, DTP, NCI, 2024)

Test system: 616215-338-R-J1-PDC spheroids with HUVEC/MSC, viability
Assay: Anticancer human tumor 616215-338-R-J1-PDC patient-derived colon adenocarcinoma cell line growth inhibition [PI3K]
Details: for viability, T/C: stronger effect = lower value
Outline: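 Tumor cells were combined with HUVEC and MSCs into spheroids, then dosed with PI3K-inhibitor combinations over half-log ranges capped near clinical Cmax or 10 microM.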

[1] = curve of first compound, second compound 0.0316 µM
[2] = curve of first compound, second compound 0.1 µM
[3] = curve of first compound, second compound 0.316 µM
[4] = curve of first compound, second compound 1 µM
[5] = second compound 0.0316 µM, first compound 0.00316 µM
[6] = second compound 0.0316 µM, first compound 0.01 µM
[7] = second compound 0.0316 µM, first compound 0.0316 µM
[8] = second compound 0.0316 µM, first compound 0.1 µM
[9] = second compound 0.0316 µM, first compound 0.316 µM
[10] = second compound 0.0316 µM, first compound 1 µM
[11] = second compound 0.1 µM, first compound 0.00316 µM
[12] = second compound 0.1 µM, first compound 0.01 µM
[13] = second compound 0.1 µM, first compound 0.0316 µM
[14] = second compound 0.1 µM, first compound 0.1 µM
[15] = second compound 0.1 µM, first compound 0.316 µM
[16] = second compound 0.1 µM, first compound 1 µM
[17] = second compound 0.316 µM, first compound 0.00316 µM
[18] = second compound 0.316 µM, first compound 0.01 µM
[19] = second compound 0.316 µM, first compound 0.0316 µM
[20] = second compound 0.316 µM, first compound 0.1 µM
[21] = second compound 0.316 µM, first compound 0.316 µM
[22] = second compound 0.316 µM, first compound 1 µM
[23] = second compound 1 µM, first compound 0.00316 µM
[24] = second compound 1 µM, first compound 0.01 µM
[25] = second compound 1 µM, first compound 0.0316 µM
[26] = second compound 1 µM, first compound 0.1 µM
[27] = second compound 1 µM, first compound 0.316 µM
[28] = second compound 1 µM, first compound 1 µM
[29] = curve of first compound, second compound 0.00316 µM
[30] = curve of first compound, second compound 0.01 µM
[31] = second compound 0.00316 µM, first compound 0.0316 µM
[32] = second compound 0.00316 µM, first compound 0.1 µM
[33] = second compound 0.00316 µM, first compound 0.316 µM
[34] = second compound 0.00316 µM, first compound 1 µM
[35] = second compound 0.00316 µM, first compound 3.16 µM
[36] = second compound 0.00316 µM, first compound 10 µM
[37] = second compound 0.01 µM, first compound 0.0316 µM
[38] = second compound 0.01 µM, first compound 0.1 µM
[39] = second compound 0.01 µM, first compound 0.316 µM
[40] = second compound 0.01 µM, first compound 1 µM
[41] = second compound 0.01 µM, first compound 3.16 µM
[42] = second compound 0.01 µM, first compound 10 µM
[43] = second compound 0.0316 µM, first compound 3.16 µM
[44] = second compound 0.0316 µM, first compound 10 µM
[45] = second compound 0.1 µM, first compound 3.16 µM
[46] = second compound 0.1 µM, first compound 10 µM
[47] = second compound 0.316 µM, first compound 3.16 µM
[48] = second compound 0.316 µM, first compound 10 µM
[49] = second compound 1 µM, first compound 3.16 µM
[50] = second compound 1 µM, first compound 10 µM
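Also: spheroids exposed to agents for seven days before the viability read.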

CCN1CCN(Cc2ccc(Nc3ncc(F)c(-c4cc(F)c5nc(C)n(C(C)C)c5c4)n3)nc2)CC1 + CC(Nc1ncnc2nc[nH]c12)c1cc2cccc(Cl)c2c(=O)n1-c1ccccc1
IC50 [1]: > 1000 nM | IC50 [2]: > 1000 nM | IC50 [3]: > 1000 nM | IC50 [4]: > 1000 nM | IC50 (curve of first compound, second compound 3.16 µM): > 1000 nM | IC50 (curve of first compound, second compound 10 µM): > 1000 nM | viability, T/C [5]: 92% | viability, T/C [6]: 90.9% | viability, T/C [7]: 100% | viability, T/C [8]: 98.6% | viability, T/C [9]: 150% | viability, T/C [10]: 109% | viability, T/C [11]: 91.5% | viability, T/C [12]: 88.2% | viability, T/C [13]: 104% | viability, T/C [14]: 106% | viability, T/C [15]: 137% | viability, T/C [16]: 149% | viability, T/C [17]: 95.2% | viability, T/C [18]: 93.9% | viability, T/C [19]: 98.2% | viability, T/C [20]: 100% | viability, T/C [21]: 147% | viability, T/C [22]: 106% | viability, T/C [23]: 98.5% | viability, T/C [24]: 90.5% | viability, T/C [25]: 105% | viability, T/C [26]: 108% | viability, T/C [27]: 148% | viability, T/C [28]: 79.7% | viability, T/C (second compound 3.16 µM, first compound 0.00316 µM): 106% | viability, T/C (second compound 3.16 µM, first compound 0.01 µM): 93.9% | viability, T/C (second compound 3.16 µM, first compound 0.0316 µM): 123% | viability, T/C (second compound 3.16 µM, first compound 0.1 µM): 124% | viability, T/C (second compound 3.16 µM, first compound 0.316 µM): 144% | viability, T/C (second compound 3.16 µM, first compound 1 µM): 86.8% | viability, T/C (second compound 10 µM, first compound 0.00316 µM): 111% | viability, T/C (second compound 10 µM, first compound 0.01 µM): 107% | viability, T/C (second compound 10 µM, first compound 0.0316 µM): 118% | viability, T/C (second compound 10 µM, first compound 0.1 µM): 120% | viability, T/C (second compound 10 µM, first compound 0.316 µM): 114% | viability, T/C (second compound 10 µM, first compound 1 µM): 57.9%

Cn1nccc1Nc1nccc(-c2ccn(C(CO)c3ccc(Cl)c(F)c3)c(=O)c2)n1 (stereo not given) + CC(Nc1ccc2c(c1)OCCn1cc(N3C(=O)OCC3C(F)F)nc1-2)C(N)=O
IC50 [29]: 4610 nM | IC50 [30]: 3920 nM | IC50 [1]: 2320 nM | IC50 [2]: 1150 nM | IC50 [3]: 986 nM | IC50 [4]: 1240 nM | viability, T/C [31]: 94.1% | viability, T/C [32]: 87% | viability, T/C [33]: 74.5% | viability, T/C [34]: 71.3% | viability, T/C [35]: 53.8% | viability, T/C [36]: 40.1% | viability, T/C [37]: 100% | viability, T/C [38]: 97.6% | viability, T/C [39]: 81.8% | viability, T/C [40]: 71.1% | viability, T/C [41]: 50.7% | viability, T/C [42]: 41% | viability, T/C [7]: 86.8% | viability, T/C [8]: 103% | viability, T/C [9]: 87.7% | viability, T/C [10]: 58.3% | viability, T/C [43]: 54.2% | viability, T/C [44]: 38.4% | viability, T/C [13]: 96.8% | viability, T/C [14]: 91.6% | viability, T/C [15]: 78.1% | viability, T/C [16]: 50.8% | viability, T/C [45]: 38.8% | viability, T/C [46]: 33% | viability, T/C [19]: 92.5% | viability, T/C [20]: 100% | viability, T/C [21]: 66.8% | viability, T/C [22]: 52.6% | viability, T/C [47]: 37.4% | viability, T/C [48]: 29.1% | viability, T/C [25]: 96.8% | viability, T/C [26]: 93.7% | viability, T/C [27]: 72.5% | viability, T/C [28]: 44.9% | viability, T/C [49]: 40.5% | viability, T/C [50]: 6.88%

Cn1ncc(Cl)c1-c1cc(C(=O)NC(CN)Cc2cccc(F)c2)sc1Cl (stereo not given) + CC(Nc1ccc2c(c1)OCCn1cc(N3C(=O)OCC3C(F)F)nc1-2)C(N)=O
IC50 [29]: 6620 nM | IC50 [30]: 5810 nM | IC50 [1]: 5890 nM | IC50 [2]: 5780 nM | IC50 [3]: 6340 nM | IC50 [4]: 5530 nM | viability, T/C [31]: 101% | viability, T/C [32]: 82.3% | viability, T/C [33]: 96.3% | viability, T/C [34]: 92.7% | viability, T/C [35]: 78.6% | viability, T/C [36]: 33.6% | viability, T/C [37]: 87.6% | viability, T/C [38]: 96% | viability, T/C [39]: 115% | viability, T/C [40]: 104% | viability, T/C [41]: 68.3% | viability, T/C [42]: 33.6% | viability, T/C [7]: 104% | viability, T/C [8]: 92.2% | viability, T/C [9]: 91.9% | viability, T/C [10]: 88.8% | viability, T/C [43]: 73.7% | viability, T/C [44]: 30.3% | viability, T/C [13]: 90.2% | viability, T/C [14]: 108% | viability, T/C [15]: 95.1% | viability, T/C [16]: 83.7% | viability, T/C [45]: 73.4% | viability, T/C [46]: 30% | viability, T/C [19]: 90.1% | viability, T/C [20]: 110% | viability, T/C [21]: 97% | viability, T/C [22]: 88.3% | viability, T/C [47]: 71.6% | viability, T/C [48]: 36.1% | viability, T/C [25]: 100% | viability, T/C [26]: 101% | viability, T/C [27]: 93.9% | viability, T/C [28]: 81.1% | viability, T/C [49]: 74.6% | viability, T/C [50]: 27.9%

COc1c(OCCCN2CCOCC2)ccc2c3n(c(=NC(=O)c4cnc(N)nc4)nc12)CCN3
viability, T/C (compound 0.00316 µM): 93.2% [middle of 8 runs] | viability, T/C (compound 0.01 µM): 96.5% [middle of 8 runs] | viability, T/C (compound 0.0316 µM): 96.2% [middle of 8 runs] | viability, T/C (compound 0.1 µM): 91.2% [middle of 8 runs] | viability, T/C (compound 0.316 µM): 45% [middle of 8 runs] | viability, T/C (compound 1 µM): 26.3% [middle of 8 runs] | IC50 (compound alone, run of 05/09/2023): 279 nM [middle of 7 runs]

Cn1ncnc1[C@H]1c2n[nH]c(=O)c3cc(F)cc(c23)N[C@@H]1c1ccc(F)cc1 + COc1c(OCCCN2CCOCC2)ccc2c3n(c(=NC(=O)c4cnc(N)nc4)nc12)CCN3
IC50 [29]: > 100 nM | IC50 [30]: > 100 nM | IC50 [1]: > 100 nM | IC50 [2]: > 100 nM | IC50 [3]: < 0.316 nM | IC50 [4]: < 0.316 nM | viability, T/C (second compound 0.00316 µM, first compound 0.000316 µM): 99.2% | viability, T/C (second compound 0.00316 µM, first compound 0.001 µM): 101% | viability, T/C (second compound 0.00316 µM, first compound 0.00316 µM): 107% | viability, T/C (second compound 0.00316 µM, first compound 0.01 µM): 95.2% | viability, T/C [31]: 92.5% | viability, T/C [32]: 94.1% | viability, T/C (second compound 0.01 µM, first compound 0.000316 µM): 93.8% | viability, T/C (second compound 0.01 µM, first compound 0.001 µM): 95.7% | viability, T/C (second compound 0.01 µM, first compound 0.00316 µM): 97.9% | viability, T/C (second compound 0.01 µM, first compound 0.01 µM): 97.7% | viability, T/C [37]: 96.9% | viability, T/C [38]: 102% | viability, T/C (second compound 0.0316 µM, first compound 0.000316 µM): 96.9% | viability, T/C (second compound 0.0316 µM, first compound 0.001 µM): 99.3% | viability, T/C [5]: 113% | viability, T/C [6]: 98% | viability, T/C [7]: 97% | viability, T/C [8]: 95.7% | viability, T/C (second compound 0.1 µM, first compound 0.000316 µM): 111% | viability, T/C (second compound 0.1 µM, first compound 0.001 µM): 93.6% | viability, T/C [11]: 88.5% | viability, T/C [12]: 81% | viability, T/C [13]: 89.4% | viability, T/C [14]: 63.7% | viability, T/C (second compound 0.316 µM, first compound 0.000316 µM): 45.1% | viability, T/C (second compound 0.316 µM, first compound 0.001 µM): 41% | viability, T/C [17]: 31.9% | viability, T/C [18]: 36.2% | viability, T/C [19]: 37% | viability, T/C [20]: 29.8% | viability, T/C (second compound 1 µM, first compound 0.000316 µM): 29.8% | viability, T/C (second compound 1 µM, first compound 0.001 µM): 24.9% | viability, T/C [23]: 23.1% | viability, T/C [24]: 19.5% | viability, T/C [25]: 19.4% | viability, T/C [26]: 22.3%
